Results from publication PMC2680961, “Homologous desensitization of signalling by the alpha (α) isoform of the human thromboxane A2 receptor: A specific role for nitric oxide signalling” (Biochimica et Biophysica Acta, 2007).
Where a chain is given by its changes, count along the chain named.

What was measured:
TPα^S239A = biological target: T1, TPα^S239A (Homo sapiens, UniProt P21731, S239A); assay: Intracellular calcium mobilization, HEK.TPα^S239A cells; format: cell-based
T1 construct: expressed in transfected cells
T1 sequence (P21731 1-343 S239A): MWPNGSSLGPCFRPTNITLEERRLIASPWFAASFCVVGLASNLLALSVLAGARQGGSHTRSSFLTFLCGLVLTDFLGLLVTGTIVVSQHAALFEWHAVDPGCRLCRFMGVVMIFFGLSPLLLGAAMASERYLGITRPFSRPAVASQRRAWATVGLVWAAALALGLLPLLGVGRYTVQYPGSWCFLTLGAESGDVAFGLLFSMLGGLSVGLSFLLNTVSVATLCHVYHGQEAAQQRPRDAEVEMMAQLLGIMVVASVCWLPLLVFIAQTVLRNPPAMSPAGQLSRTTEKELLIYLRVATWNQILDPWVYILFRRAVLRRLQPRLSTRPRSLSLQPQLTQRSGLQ
Procedure: Measurement of intracellular calcium mobilization ([Ca^2+]i) in FURA2/AM preloaded HEK 293 cell lines (2 × 10^6 cells/dish), each transiently co-transfected with pADVA (10 μg), and pCMV:Gαq (25 μg), was carried out as previously described. To investigate the effect of GRK2/βARK1 on TP-mediated [Ca^2+]i mobilization, HEK.TPα or HEK.TPβ cells (2 × 10^6 cells/dish) were co-transfected with pADVA (10 μg), pCMV:Gαq (25 μg) along with pRK5:βARK1^495–689 (25 μg), encoding a dominant negative form of GRK2/βARK1[39]. Approximately 48 h post-transfection, cells were harvested by scraping, washed twice in ice-cold PBS and resuspended in HBSSHB (modified Ca^2+/Mg^2+-free Hank's buffered salt solution, containing […], pH 7.67, 0.1% bovine serum albumin (BSA)) buffer at 10^7 cells/ml and incubated in the dark with 5 μM FURA2/AM for 45 min at 37 °C. Cells were collected by centrifugation (900×g, 5 min), washed once in an equal volume of HBSSHB, and were finally resuspended in HBSSHB buffer at 10^7 cells/ml and kept at room temperature in the dark for 40 min. For each measurement of [Ca^2+]i mobilization, aliquots of cells were diluted to 0.825 × 10^6 cells/ml in HBSSHB, 1 mM CaCl2 and FURA2 fluorescence was recorded (2 ml aliquots of cells) at 37^ °C with gentle stirring with a Perkin Elmer-Cetus LS50-B spectrofluorometer at excitation wavelengths of 340 nm and 380 nm and emission wavelength of 510 nm, respectively.
Cells were stimulated with the TP agonist U46619 (1 μM) and changes in [Ca^2+]i mobilization were monitored as a function of time. To assess agonist-mediated homologous desensitization, cells (0.825 × 10^6 cells/ml; 2 ml per assay) were stimulated with 1 μM U46619 (Primary stimulation) or, as a control, with the vehicle for 4 min; thereafter, cells were collected by centrifugation (900×g, 5 min); were washed twice in 2 ml HBSSHB, 1 mM CaCl2; and finally resuspended in 2 ml HBSSHB,1 mM CaCl2 and were left to recover over various time intervals (ranging from 0 to 60 min); thereafter, cells re-stimulated with 1 μM U46619 (Secondary stimulation) and changes in [Ca^2+]i mobilization were monitored as a function of time. […]
The vehicle had no effect on U46619-mediated [Ca^2+]i mobilization. Calibration of the signal was performed in each sample by adding 0.2% Triton X-100 to obtain the maximal fluorescence ratio (Rmax) and then 1 mM EGTA to obtain the minimal fluorescence ratio (Rmin). […] Changes in [Ca^2+]i mobilization were determined by measuring peak rises in [Ca^2+]i mobilized (Δ[Ca^2+]i) and were calculated as mean changes in Δ[Ca^2+]i ± S.E.M. (nM).

TPα^S331A = biological target: T2, TPα^S331A (Homo sapiens, UniProt P21731, S331A); assay: Agonist-mediated TP phosphorylation in whole cells, HEK.TPα^S331A; format: cell-based; details: 1 μM U46619 10 min
T2 construct: expressed in transfected cells
T2 sequence (P21731 1-343 S331A): T1 sequence (P21731 1-343 S239A) with A239S, S331A
Procedure: Agonist-mediated TP phosphorylation in whole cells (1.8–2 × 10^6 cells/10 cm dish) was performed essentially as previously described. Briefly, cells were transiently co-transfected with pADVA (10 μg), pCMV:Gαq (25 μg) plus pcDNA:βArrestin2 (25 μg) approximately 48 h prior to labelling. Thereafter, cells were washed once in phosphate-free DMEM, 10% dialysed FBS and were metabolically labelled for 60 min in the same medium (2 ml/10 cm dish) containing 100 μCi/ml [^32P] orthophosphate (8000–9000 Ci/mmol) at 37 °C, 5% CO2. Where appropriate, the PKG kinase inhibitor KT 5823 (50 nM) or its vehicle was added during the labelling period. Thereafter, U46619 (1 μM) or an equivalent volume of vehicle (0.01% ethanol in HBS; 20 μl) were added and cells were incubated for 10 min at 37 °C, 5% CO2. Reactions were terminated by transferring the dishes to ice and aspirating the labelled medium and HA-epitope tagged TP receptors were processed and immunoprecipitated using the anti-HA 101R antibody as previously described. Electroblots were then exposed to Xomat XAR (Kodak) film to detect ^32P-labelled proteins. Thereafter, blots were subject to phosphorimage analysis, and the intensities of agonist-induced phosphorylation were expressed in arbitrary units relative to basal (vehicle-stimulated) levels. In parallel experiments, cells were incubated under identical conditions in the absence of [^32P] orthophosphate; HA-tagged TP receptors were immunoprecipitated from the same cell lines using the anti-HA 101R antibody and immunoblots were screened using the anti-HA 3F10 horseradish peroxidase-conjugated antibody.

For CCCCC[C@H](O)/C=C/[C@@H]1[C@@H](C/C=C\CCCC(=O)O)[C@H]2CO[C@@H]1C2 [U46619], the “Δ[Ca2+]i, U46619-induced” value (TPα^S239A; + GRK^DN, primary 1 μM U46619) was 180 ± 9 nM, the “Δ[Ca2+]i, U46619-induced” value (TPα^S239A; + GRK^DN, secondary 1 μM U46619 at 15 min) was 0 nM and the “Δ[Ca2+]i, U46619-induced” value (TPα^S239A; − GRK^DN, primary 1 μM U46619) was 176 ± 10.3 nM. The “Δ[Ca2+]i, U46619-induced” value (TPα^S239A; − GRK^DN, secondary 1 μM U46619 at 15 min) was 0 nM and the “U46619-mediated TPα^S331A phosphorylation relative to basal (vehicle)” value (TPα^S331A) was 2 fold.
